logP and logD data for 74 compounds are collected here from the SangsterLogP compilation.

The first series in a line: method code SF-AS, from PMID: 6889867.
Settings: not given
Broadly, the logP is a log measure of how a compound divides between an organic and an aqueous phase. In turn, `CCOC(=O)c1c(OC)cc(Cc2cnc(N)nc2N)cc1OC` came in with a logP of 1.25. The same measure, in the same setting: then `COCCOc1c(OC)cc(Cc2cnc(N)nc2N)cc1OC`, with 0.56; and `COc1ccc(Cc2cnc(N)nc2N)cc1OCc1ccccc1`, with 2.44; and `COCc1c(OC)cc(Cc2cnc(N)nc2N)cc1OC`, with 1.19. On the same count and under the same terms, then `COc1cc(C)c(Cc2cnc(N)nc2N)cc1OCc1ccccc1`, with 2.69; and `CCCCOc1cc(Cc2cnc(N)nc2N)c(C)cc1OC`, with 2.78; and `COc1c(O)cc(Cc2cnc(N)nc2N)cc1O`, with -0.04. Same read-out and setting: in the case of `COc1cc(Cc2cnc(N)nc2N)cc(OC)c1Cl` it was 1.87; in that of `CCSc1c(OC)cc(Cc2cnc(N)nc2N)cc1OC`, 1.79. `COC(=O)COc1c(OC)cc(Cc2cnc(N)nc2N)cc1OC` registered a log partition coefficient (logP) of 0.55.

In turn, `COc1cc(Cc2cnc(N)nc2N)cc(C)c1OC` returned a logP of 1.62. Same read-out and setting: in the case of `COc1cc(Cc2cnc(N)nc2N)ccc1O` it was 0.64. On the same count and under the same terms, then `COc1cc(Cc2cnc(N)nc2N)ccc1OCc1ccccc1`, with 2.66; and `COc1c(C)cc(Cc2cnc(N)nc2N)cc1C`, with 2.19; and `COc1cc(Cc2cnc(N)nc2N)cc(OC)c1O`, with 0.37. The same measure, in the same setting: then `COc1ccc(Cc2cnc(N)nc2N)cc1OC`, with 0.97; and `CNc1cc(Cc2cnc(N)nc2N)cc(N(C)C(C)=O)c1C`, with 0.53; and `COc1cc(Cc2cnc(N)nc2N)cc(OC)c1OCc1ccccc1`, with 2.46. In turn, `C=C(C)c1c(OC)cc(Cc2cnc(N)nc2N)cc1OCC` registered a lipophilicity (logP) of 2.65. Still for that read-out and setting: then `COc1cccc(Cc2cnc(N)nc2N)c1`, with 1.54. In turn, `Cc1c(N(C)C)cc(Cc2cnc(N)nc2N)cc1N(C)C` displayed a lipophilicity (logP) of 2.06.

For `COc1cc(OC)c(OC)cc1Cc1cnc(N)nc1N`, the log partition coefficient (logP) is 1.17. Still for that read-out and setting: in the case of `COc1cc(Cc2cnc(N)nc2N)cc(OC)c1OCC#N` it was 0.72; in that of `COc1cc(Cc2cnc(N)nc2N)ccc1C(C)(C)O`, 1.38. The same measure, in the same setting: then `COc1cc(Cc2cnc(N)nc2N)cc(OC)c1-n1cccc1`, with 1.78; and `CCOc1cc(Cc2cnc(N)nc2N)cc(OCC)c1C(=O)CS(C)(=O)=O`, with 0.79. On the same count and under the same terms, in the case of `COc1cc(Cc2cnc(N)nc2N)cc(OC)c1C(=O)N(C)C` it was -0.21; in that of `COc1cc(Cc2cnc(N)nc2N)cc(O)c1O`, -0.31; in that of `CCOc1c(OC)cc(Cc2cnc(N)nc2N)cc1OC`, 1.34.

Turning to `COc1cc(C)c(Cc2cnc(N)nc2N)cc1OC`, the lipophilicity (logP) stood at 1.23. Compound `COc1cc(Cc2cnc(N)nc2N)cc(OC)c1SC` returned a log partition coefficient (logP) of 1.54. With `CN(C)c1cc(Cc2cnc(N)nc2N)cc(N(C)C)c1`, the logP is 1.6. The same measure, in the same setting: in the case of `COc1cc(Cc2cnc(N)nc2N)cc(OC)c1C(=O)OC(C)C` it was 1.72; in that of `CNc1cc(Cc2cnc(N)nc2N)cc(NC)c1`, 0.44; in that of `COc1cc(Cc2cnc(N)nc2N)cc(OC)c1C(=O)CS(C)(=O)=O`, -0.31. The same measure, in the same setting: then `Nc1ccc(Cc2cnc(N)nc2N)cc1`, with 0.22; and `COc1cc(Cc2cnc(N)nc2N)cc(OCc2ccccc2)c1OC`, with 2.37; and `COc1cc(Cc2cnc(N)nc2N)cc(OC)c1CO`, with 0.42.

Still in this series, the particulars now being: pH 7.4.
One may read the logD as lipophilicity at a set pH, counting ionised and neutral species. Lower therefore signals lower lipophilicity. `COC(=O)c1c(OC)cc(Cc2cnc(N)nc2N)cc1OC` registered a log distribution coefficient (logD) of 0.76. As for `COc1cc(Cc2cnc(N)nc2N)cc(OC)c1C(C)(C)O`, the log distribution coefficient (logD) came to 1.3. Same read-out and setting: in the case of `COc1cc(Cc2cnc(N)nc2N)cc(I)c1OC` it was 2.14. The same measure, in the same setting: in the case of `CCOC(=O)c1c(OCC)cc(Cc2cnc(N)nc2N)cc1OCC` it was 2.09.

`CCOc1cc(Cc2cnc(N)nc2N)cc(OCC)c1C(C)=O` yielded a log distribution coefficient (logD) of 1.85.

Turning to `Cc1cc2c(cc1Cc1cnc(N)nc1N)OCO2`, the log distribution coefficient (logD) was 1.7.

`COc1cc(Cc2cnc(N)nc2N)cc(OC)c1N` yielded a log distribution coefficient (logD) of 0.6.

As for `Nc1ncc(Cc2cc(Cl)c(Cl)cc2Cl)c(N)n1`, the logD turned out to be 3.6. For the compound `COc1ccc(Cc2cnc(N)nc2N)cc1O`, the pH-dependent lipophilicity (logD) stood at 0.55.

As for `CCOc1cc(Cc2cnc(N)nc2N)cc(OCC)c1-n1cccc1`, the pH-dependent lipophilicity (logD) worked out at 2.74. As to `COc1cc(Cc2cnc(N)nc2N)cc(OC)c1C(C)=O`, the logD amounted to 0.91. `Nc1ncc(Cc2cc(Cl)c(Cl)c(Cl)c2)c(N)n1` showed a logD of 3.45. Still for that read-out and setting: then `COc1cncc(OC)c1Cc1cnc(N)nc1N`, with 1.48; and `COc1cc(Cc2cnc(N)nc2N)cc(OC)c1C#N`, with 1.2; and `COc1cc(Cc2cnc(N)nc2N)cc(OC)c1Br`, with 1.82. On the same count and under the same terms, then `COc1cc(Cc2cnc(N)nc2N)cc(Cl)c1OC`, with 1.73. Take `Nc1ncc(Cc2ccc3c(c2)OCO3)c(N)n1`: the logD worked out at 1.3. Still for that read-out and setting: then `COc1cc(Cc2cnc(N)nc2N)c(Cl)c(OC)c1`, with 1.94; and `CCOc1cc(Cc2cnc(N)nc2N)cc(OCC)c1N`, with 1.5.

For `COc1ccc(Cc2cnc(N)nc2N)c(OC)n1`, the logD was 1.83. On the same count and under the same terms, then `CCOc1cc(Cc2cnc(N)nc2N)cc(OCC)c1C(C)(C)O`, with 2.3; and `CCOc1cc(Cc2cnc(N)nc2N)cc(OC)c1C(C)(C)O`, with 1.92. In turn, `COc1cc(Cc2cnc(N)nc2N)cc(OCc2ccccc2)c1OCc1ccccc1` yielded a logD of 3.9. The same measure, in the same setting: in the case of `COc1cc(OC)c(Cl)c(Cc2cnc(N)nc2N)c1Cl` it was 2.32; in that of `COc1cc(Cc2cnc(N)nc2N)cc(OC)c1C(C)C`, 3.18; in that of `COc1c(OCc2ccccc2)cc(Cc2cnc(N)nc2N)cc1OCc1ccccc1`, 3.7. Regarding `COc1c(N(C)C)cc(Cc2cnc(N)nc2N)cc1N(C)C`, the pH-dependent lipophilicity (logD) was 1.86. The same measure, in the same setting: in the case of `Nc1ncc(Cc2cc3c(cc2Br)OCO3)c(N)n1` it was 2.3; in that of `COc1cc(Cc2cnc(N)nc2N)ccc1C`, 1.95. `COc1cc(Cc2cnc(N)nc2N)cc(OC)c1I`: the log distribution coefficient (logD) was 2.21. Same read-out and setting: in the case of `COc1cc(Cc2cnc(N)nc2N)ccc1SC` it was 1.73. Still for that read-out and setting: then `O=C1CN=C(c2ccccc2F)c2cc(I)ccc2N1CC(O)CO` (centres undefined), with 1.81. On the same count and under the same terms, then `COc1cc(Cc2cnc(N)nc2N)cc2c1OCO2`, with 1.19.

`CNc1cc(Cc2cnc(N)nc2N)cc(N(C)C)c1OC` showed a logD of 1.56. The compound `C=CCc1c(OCC)cc(Cc2cnc(N)nc2N)cc1OCC` registered a pH-dependent lipophilicity (logD) of 2.89.

A short description of the next series: method code SF, from PMID: 6889867. The conditions noted are these: pH 7.4.
Compound `COc1c(Cl)cc(Cc2cnc(N)nc2N)cc1Cl` had a logD of 2.59.
